Assay results as given in patent US12528761B2, “Thyromimetics” (Autobahn Therapeutics, Inc., priority 2020, dated 2026).

Columns and labels:
[1] = target: T1, recombinant human FAAH (rhFAAH) (Homo sapiens, UniProt O00519); assay: FAAH substrate evaluation (formation of acid metabolite, LC-MS/MS); assay type: biochemical; set-up: key: A: ke is equal to or less than 1.0; B: ke is greater than 1.0 and less than or equal to 2.5; C: ke is greater than 2.5; NC: no conversion; details: 0.5 ng/μL rhFAAH, 1 μM test compound, pH 8.0, room temperature, 0-60 minutes
T1 construct: purchased Cayman Chemical (Ann Arbor, MI, USA)
T1 sequence (O00519 1-579): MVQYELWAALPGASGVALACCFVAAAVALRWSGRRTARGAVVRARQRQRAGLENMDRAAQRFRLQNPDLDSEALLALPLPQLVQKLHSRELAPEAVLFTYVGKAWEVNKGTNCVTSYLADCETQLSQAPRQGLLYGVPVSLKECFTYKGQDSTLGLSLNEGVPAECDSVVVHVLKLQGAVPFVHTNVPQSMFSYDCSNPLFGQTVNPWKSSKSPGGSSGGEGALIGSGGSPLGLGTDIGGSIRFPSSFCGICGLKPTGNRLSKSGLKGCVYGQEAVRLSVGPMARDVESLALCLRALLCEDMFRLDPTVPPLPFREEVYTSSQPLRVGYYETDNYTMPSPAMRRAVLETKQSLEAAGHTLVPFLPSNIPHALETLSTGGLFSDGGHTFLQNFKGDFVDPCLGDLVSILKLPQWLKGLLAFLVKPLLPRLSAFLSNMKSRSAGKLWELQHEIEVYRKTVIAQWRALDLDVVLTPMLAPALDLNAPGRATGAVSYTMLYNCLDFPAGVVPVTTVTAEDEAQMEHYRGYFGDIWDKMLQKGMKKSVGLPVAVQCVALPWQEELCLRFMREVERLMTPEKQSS
In short: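 Test compound at 1 μM incubated at room temperature with 0.5 ng/μL rhFAAH, 0.1% BSA in Tris-EDTA pH 8.0; parallel incubations with 1 μM PF-3845 inhibitor. Samples quenched at 0-60 min; acid metabolite quantified by LC-MS/MS, ke taken as slope of metabolite concentration versus time.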

[2] = target: T2, TRβ (Homo sapiens, UniProt P10828); assay: TR reporter-gene assay (Gal4 DBD hybrid, luciferase), TRβ; assay type: cell-based; details: for EC50: HEK293-derived reporter cells, 24 hr treatment, read-out: TRβ EC50; for T3-SI (selectivity index, EC50 (TRα)/EC50 (TRβ)): class symbols
T2 construct: expressed in transfected cells; host or cells: HEK293
T2 sequence (P10828 217-461 limits assumed): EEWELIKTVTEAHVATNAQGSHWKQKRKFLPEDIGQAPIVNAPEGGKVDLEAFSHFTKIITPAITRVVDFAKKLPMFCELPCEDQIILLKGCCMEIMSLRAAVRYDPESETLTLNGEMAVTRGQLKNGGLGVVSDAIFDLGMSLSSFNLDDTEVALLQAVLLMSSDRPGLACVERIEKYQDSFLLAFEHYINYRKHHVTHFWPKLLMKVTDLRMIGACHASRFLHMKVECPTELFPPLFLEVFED
In short: (§1)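 HEK293 reporter cells expressing Gal4-DBD/TR ligand-binding hybrids driving firefly luciferase from a Gal4 UAS; cells pre-incubated 6 h, then treated 24 h at 37 °C in medium with 10% charcoal-stripped FBS (final DMSO 0.1–0.4%), in duplicate. Read-out was luminescence (RLU).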

[3] = target: T3, TRα (Homo sapiens, UniProt P10827); assay: TR reporter-gene assay (Gal4 DBD hybrid, luciferase), TRα; assay type: cell-based; details: HEK293-derived reporter cells, 24 hr treatment; read-out: TRα EC50
T3 construct: expressed in transfected cells; host or cells: HEK293
T3 sequence (P10827 1-410 isoform P10827-2): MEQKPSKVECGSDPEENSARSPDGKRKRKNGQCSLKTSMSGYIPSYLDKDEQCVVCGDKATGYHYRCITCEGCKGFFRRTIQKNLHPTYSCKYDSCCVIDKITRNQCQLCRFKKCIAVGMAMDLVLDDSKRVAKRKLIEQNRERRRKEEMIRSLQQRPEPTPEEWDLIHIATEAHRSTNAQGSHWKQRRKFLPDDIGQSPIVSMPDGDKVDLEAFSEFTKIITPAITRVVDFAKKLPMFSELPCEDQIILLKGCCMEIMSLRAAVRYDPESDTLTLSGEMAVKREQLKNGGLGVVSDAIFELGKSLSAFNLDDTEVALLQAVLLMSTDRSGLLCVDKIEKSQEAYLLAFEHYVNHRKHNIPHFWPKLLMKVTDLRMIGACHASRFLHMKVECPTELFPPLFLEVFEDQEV
In short: as §1

[4] = Brain levels of parent acid after dosing prodrug (FIG. 1); assay type: in vivo; details: compared with dosing Compound 15 itself
From the text: The acid compounds of the present invention (R^1=—OR^1c and R^1c=H) are active agonists selectively activating the TRβ receptor. The amide compounds of the present invention (R^1=—NR^1aR^1b) may act as substrates for the specific hydrolase enzyme fatty acid-amide hydrolase (FAAH), which cleaves the amide, liberating the thyromimetic. Thus, prodrug conversion to drug is enhanced in tissues that express high levels of FAAH such as the central nervous system. […] The ester compounds of the present invention (R^1=—OR^1c and R^1c≠H) are also prodrugs, typically processed through the action of esterases which may exist selectively in specific tissues.

SMILES | ke, observed rate constant for the acid metabolite formation [1] | EC50 [2] [nM] | EC50 [3] [nM] | T3-SI (selectivity index, EC50 (TRα)/EC50 (TRβ)) [2] | brain levels of the parent acid Compound 15 [4]
CON(C)C(=O)Cc1cc(Cl)c(Cc2ccc(O)c(C(C)C)c2F)c(Cl)c1 [Compound 105, 2-(3,5-dichloro-4-(2-fluoro-4-hydroxy-3-isopropylbenzyl)phenyl)-N-methoxy-N-methylacetamide] | NC | > 1000 |  |  | 
CNC(=O)CSCc1cc(C)c(Cc2ccc(O)c(C(C)C)c2)c(Cl)c1F [Compound 217, 2-((3-chloro-2-fluoro-4-(4-hydroxy-3-isopropylbenzyl)-5-methylbenzyl)thio)-N-methylacetamide] | C (ke is greater than 2.5) | > 1000 | > 1000 | ++ (3× < T3-SI ≤ 30×) | 
CC(C)c1cc(Cc2c(Cl)cc(CCCC(=O)O)cc2Cl)ccc1O [Compound 16, 4-(3,5-dichloro-4-(4-hydroxy-3-isopropylbenzyl)phenyl)butanoic acid] |  | 100 to 1000 | > 1000 | +++ (T3-SI > 30×) | markedly higher brain levels
CONC(=O)Cc1cc(Cl)c(Cc2ccc(O)c(C(C)C)c2F)c(Cl)c1 [Compound 208, 2-(3,5-dichloro-4-(2-fluoro-4-hydroxy-3-isopropylbenzyl)phenyl)-N-methoxyacetamide] | A (ke is equal to or less than 1.0) | 100 to 1000 | > 1000 | ++ (3× < T3-SI ≤ 30×) | 
COC(=O)CCc1cc(Cl)c(Cc2ccc(O)c(C(C)c3ccc(F)cc3)c2F)c(Cl)c1 (stereo not drawn) [Compound 17, methyl 3-(3,5-dichloro-4-(2-fluoro-3-(1-(4-fluorophenyl)ethyl)-4-hydroxybenzyl)phenyl)propanoate] |  |  |  |  | markedly higher brain levels
